Source: ChEMBL document CHEMBL1121777, “Synthesis and antidepressant activity of substituted (omega-aminoalkoxy)benzene derivatives” (J Med Chem, 1981)
In brackets after ≈: the same amount, converted by molar mass. Values belong to the molecule of their own block, whether it stands above or below them.

How the values were obtained:
Mus musculus [1] = species: Mus musculus; experiment: Ability to prevent the reserpine induced hypothermia in mice relative to amitriptyline; type: functional
Cavia porcellus = species: Cavia porcellus; experiment: Concentration required to reducing the histamine induced contraction by 50% was measured; type: functional
Mus musculus [2] = experiment: Antiphysostigmine effect was measured as ED50,po; type: functional
Mus musculus [3] = experiment: The compound was tested for it's ability to reverse the reserpine induced hypothermia in mice, po; type: functional
Mus musculus [4] = experiment: Muscle relaxant effect was measured as ED50 which is the dose that causes muscle relaxation in 50% of the mice, po; type: functional
Rattus norvegicus [5] = experiment: Antimuricide effect was observed in the olfactory bulb removed rats; antimuricide effect at 30 mg/kg; + = 31-50%; type: functional
[6] = Toxicity was measured as LD50,po; type: organism-based; conditions: mouse, in vivo
Mus musculus [7] = species: Mus musculus; experiment: The compound was tested for it's ability to reverse the reserpine induced hypothermia in mice; type: functional
Rattus norvegicus [8] = experiment: Antimuricide effect was observed in the olfactory bulb removed rats; antimuricide effect at 30 mg/kg; + = 31 - 50%; type: functional
Rattus norvegicus [9] = experiment: Antimuricide effect was observed in the olfactory bulb removed rats; antimuricide effect at 30 mg/kg; ++ = 51-70%; type: functional
Mus musculus [10] = species: Mus musculus; experiment: The compound was tested for it's ability to prevent the reserpine induced hypothermia in mice; type: functional
Rattus norvegicus [11] = experiment: Antimuricide effect was observed in the olfactory bulb removed rats; antimuricide effect at 30 mg/kg; ++ = 51 - 70%; type: functional

Compound: CNCCCCOc1ccccc1C(=O)Nc1ccccc1.Cl
- Relative potency (Mus musculus [1]): 0.36

- IC50 (Cavia porcellus): 0.001 µg/mL
Compound: CN(C)CCOc1ccccc1Cc1ccccc1.Cl
- Relative potency (Mus musculus [1]): 0

Compound: CC(c1ccccc1)c1ccccc1OCCCCN(C)C.Cl (stereo not given)
- Relative potency (Mus musculus [1]): 0.36

Compound: CNCCCCOc1ccccc1Sc1ccccc1.Cl
- ED50 (Mus musculus [2]): > 200 mg/kg
- IC50 (Cavia porcellus): 2.2 µg/mL
- ED10 (Mus musculus [3]): 15 mg/kg
- Relative potency (Mus musculus [1]): 0.89
- ED50 (Mus musculus [4]): > 200 mg/kg
- Effect (Rattus norvegicus [5]): 31%
- LD50 [6]: 980 mg/kg

Compound: Cc1cccc(Cc2ccccc2)c1OCCCCN(C)C.Cl
- Relative potency (Mus musculus [1]): 0.66

Compound: CNCCCCOc1ccccc1Cc1ccc(C)cc1.Cl
- Relative potency (Mus musculus [1]): 0.44

Compound: CN(C)CCCCOc1ccccc1Cl.Cl
- Relative potency (Mus musculus [1]): 0.47

Compound: CNCCCCOc1ccccc1C(=O)c1ccccc1.Cl
- Relative potency (Mus musculus [1]): 0

Compound: CNCCOc1ccccc1Cc1ccccc1.Cl
- Relative potency (Mus musculus [1]): 0

Compound: CN(C)CCCCCOc1ccccc1Cc1ccccc1.Cl
- Relative potency (Mus musculus [1]): 0.23

Compound: CN(C)CCCCOc1ccccc1Cc1ccc(Cl)cc1.Cl
- Relative potency (Mus musculus [1]): 0.17

Compound: CNCCCCOc1ccccc1Cc1ccc(Cl)cc1.Cl
- Relative potency (Mus musculus [1]): 0.27

Compound: CN(C)CCCCOc1ccc(Cl)cc1Cc1ccccc1.Cl
- Relative potency (Mus musculus [1]): 0.26

Compound: CNCCCCOc1ccccc1Cc1ccccc1.Cl
- ED50 (Mus musculus [2]): > 200 mg/kg
- IC50 (Cavia porcellus): 1.1 µg/mL
- Relative potency (Mus musculus [1]): 0.78
- ED10 (Mus musculus [7]): 12.5 mg/kg
- ED50 (Mus musculus [4]): > 200 mg/kg
- LD50 [6]: 1000 mg/kg

Compound: CN(C)CCCCOc1ccccc1Sc1ccccc1.Cl
- Relative potency (Mus musculus [1]): 0.7

Compound: Cl.c1ccc(Cc2ccccc2OCCCCN2CCOCC2)cc1
- Relative potency (Mus musculus [1]): 0.3

Compound: CNCCCCOc1ccccc1Cl.Cl
- Relative potency (Mus musculus [1]): 0

Compound: CNCCCCOc1ccccc1[S+]([O-])c1ccccc1.Cl (stereo not given)
- Relative potency (Mus musculus [1]): 0.49

Compound: CNCCCCOc1ccccc1C(O)c1ccccc1.Cl (stereo not given)
- Relative potency (Mus musculus [1]): 0

Compound: COc1ccc(Cc2ccccc2OCCCCN(C)C)cc1.Cl
- Relative potency (Mus musculus [1]): 0

Compound: CCOc1ccccc1OCCCCNC.Cl
- Relative potency (Mus musculus [1]): 0

Compound: Cl.NCCCCOc1ccccc1Cc1ccccc1
- Relative potency (Mus musculus [1]): 0

- IC50 (Cavia porcellus): 0.032 µg/mL (≈ 0.114 µM)
Compound: CN(C)CCCN1c2ccccc2CCc2ccccc21 [IMIPRAMINE]
- ED50 (Mus musculus [2]): 120 mg/kg
- ED50 (Mus musculus [4]): 190 mg/kg
- Effect (Rattus norvegicus [8]): 31%

Compound: Cc1ccc(Cc2ccccc2OCCCCN(C)C)cc1.Cl
- Relative potency (Mus musculus [1]): 0.18

Compound: CCNCCCOc1ccccc1Cc1ccccc1.Cl
- Relative potency (Mus musculus [1]): 0

Compound: CNCCCCOc1ccccc1OCc1ccccc1.Cl
- Relative potency (Mus musculus [1]): 0

Compound: CNCCCCOc1ccccc1Oc1ccccc1.Cl
- ED50 (Mus musculus [2]): > 200 mg/kg
- IC50 (Cavia porcellus): 1.6 µg/mL
- ED10 (Mus musculus [3]): 8.8 mg/kg
- Effect (Rattus norvegicus [9]): 51%
- Relative potency (Mus musculus [1]): 1.1
- ED50 (Mus musculus [4]): > 200 mg/kg
- LD50 [6]: 600 mg/kg

Compound: CNCCCCCOc1ccccc1Cc1ccccc1.Cl
- Relative potency (Mus musculus [1]): 0.57

Compound: CNCCCCOc1ccc(Cl)cc1Cc1ccccc1.Cl
- Relative potency (Mus musculus [1]): 0.17

Compound: CN(C)CCC=C1c2ccccc2CCc2ccccc21 [AMITRIPTYLINE]
- ED50 (Mus musculus [2]): 35 mg/kg
- IC50 (Cavia porcellus): 0.0083 µg/mL (≈ 0.0299 µM)
- Relative potency (Mus musculus [1]): 5.8
- ED50 (Mus musculus [4]): 40 mg/kg
- Effect (Rattus norvegicus [8]): 31%
- LD50 [6]: 300 mg/kg

Compound: CNCCCCOc1ccccc1C1CCCCC1.Cl
- Relative potency (Mus musculus [1]): 0.28

Compound: CN(C)CCCOc1ccccc1Cc1ccccc1.Cl
- Relative potency (Mus musculus [1]): 0

Compound: CN(C)CCCCOc1ccccc1Cc1ccccc1O.Cl
- Relative potency (Mus musculus [1]): 0.77

Compound: CN1CCN(CCCCOc2ccccc2Cc2ccccc2)CC1.Cl
- Relative potency (Mus musculus [1]): 0

Compound: CNCCCCOc1ccccc1Nc1ccccc1.Cl
- Relative potency (Mus musculus [10]): 0.29

Compound: CN(C)CCCCOc1ccccc1Oc1ccccc1.Cl
- Relative potency (Mus musculus [1]): 0.58

Compound: CNCCCCOc1ccccc1S(=O)(=O)c1ccccc1.Cl
- Relative potency (Mus musculus [1]): 0.17

Compound: CNCCCCOc1ccccc1Cc1ccc(OC)cc1.Cl
- Relative potency (Mus musculus [1]): 0

Compound: CNCCCCOc1ccccc1CCc1ccccc1.Cl
- Relative potency (Mus musculus [1]): 0

Compound: Cl.c1ccc(Cc2ccccc2OCCCCN2CCCCC2)cc1
- Relative potency (Mus musculus [1]): 0.41

Compound: CNCCCCOc1ccccc1C(C)c1ccccc1.Cl (stereo not given)
- Relative potency (Mus musculus [1]): 0.66

Compound: CN(C)CCCCOc1ccccc1Cc1ccccc1.Cl
- Relative potency (Mus musculus [1]): 0

Compound: CNCCCCOc1ccccc1Cc1ccccc1O.Cl
- ED50 (Mus musculus [2]): > 200 mg/kg
- IC50 (Cavia porcellus): 2.5 µg/mL
- Effect (Rattus norvegicus [11]): 51%
- Relative potency (Mus musculus [1]): 0.99
- ED10 (Mus musculus [7]): 15 mg/kg
- ED50 (Mus musculus [4]): > 200 mg/kg
- LD50 [6]: 750 mg/kg

Compound: CNCCCCOc1ccc(O)cc1Cc1ccccc1.Cl
- Relative potency (Mus musculus [1]): 0.31

Compound: CNCCCCOc1ccc(Cc2ccccc2)cc1.Cl
- Relative potency (Mus musculus [1]): 0

Compound: CCNCCCCOc1ccccc1Cc1ccccc1.Cl
- Relative potency (Mus musculus [1]): 0.53

Compound: CNCCCCOc1ccc(OC)cc1.Cl
- Relative potency (Mus musculus [1]): 0

Compound: CNCCCCOc1ccccc1Cc1ccccc1OC.Cl
- Relative potency (Mus musculus [1]): 0.85
